Results taken from patent US12077610B2, “Peptides and other agents for treating pain and increasing pain sensitivity” (The Research Foundation for The State University of New York, priority 2017, dated 2024).
Non-standard residues stand in square brackets, D forms with d. No end group written: not given here. *: point of attachment. pT = C[C@@H](OP(=O)(O)O)[C@H](N)C(=O)O; Myristoyl = CCCCCCCCCCCCCC(=O)*

How the values were obtained:
DRG neurons = test: Current-clamp action potential firing in cultured DRG neurons; assay type: cell-based, rat
Procedure: (§1) Primary DRG neuronal cultures—Timed-pregnant Sprague-Dawley rats (Harlan, Indianapolis, Ind.) were used for culturing neurons. On the day of the dissection, rats were euthanized by CO2 asphyxiation and E15 embryos were extracted. DRG neurons were dissected from the embryos and enzymatically digested with Trypsin (2.5 mg/ml) at 37° C. for 45 min, followed by dissociation and plating. DRG neurons were plated onto poly-D-lysine (Sigma; 100 μg/ml) and laminin (Invitrogen; 3 μg/ml) coated coverslips. Neurons were maintained at 37° C. in a 7% CO2 humidified incubator in serum-free medium, comprised of the trophic factors N2 (Gemini Bio products; 1%), I-Glutamine (Invitrogen; 200 sg/ml), and Nerve Growth Factor (NGF) (Harlan; 100 ng/ml; essential for embryonic neuronal survival) in 50% DMEM and 50% F-12. The reliance of embryonic DRG neurons on NGF selects for the small-diameter population that is thought to underlie nociception and thermoception. Two successive days after DRG dissection, DRG neurons were cultured in C2 media containing the anti-mitotic agent cytosine β-d-arabinofuranoside hydrochloride (Sigma; 3 μM). This was followed by two days of recovery were neurons received regular serum free media before neurons were used for experiments. All subsequent experiments using embryonic cultures were performed on days 5-10 of neuronal culture.
Electrophysiology—All data was acquired using the Axopatch 200B amplifier (Molecular Devices,) and Multiclamp-700B (Molecular Devices, Sunnyvale, Calif.), digitized and filtered at 5 kHz. Data acquisition was monitored and controlled using pClamp 10 (Molecular Devices). Whole-cell patch-clamp recordings were performed on cultured DRG neurons, and CHO cells transiently transfected with WT or mutated Slack with Magi-1. Glass electrodes were pulled using a vertical pipette puller (Narishige International USA, Amityville, NY) and fire polished to be of 5-8 MΩ resistance. Pipettes were filled with solution containing (in mM) 124 K-gluconate, 2 MgCl2, 13.2 NaCl, 1 EGTA, 10 HEPES, 4 Mg-ATP, and 0.3 Na-GTP at pH 7.2 for neuronal recordings, and with 32.5 mM KCl, 97.5 mM potassium gluconate, 5 mM EGTA and 10 mM HEPES (pH 7.2) for CHO cell Slack and Slick recordings. […] In voltage-clamp mode, macroscopic currents were recorded at voltages ranging from −120 to +120. […] The cell capacitance for CHO cells ranged from 10-15 pF and for cultured DRG neurons 20-25 pF recorded under these conditions. […] Firing frequency of individual neurons was assessed by measurement of repetitive discharge upon injecting of a supra-threshold stimulus of 400 pA for 1000 ms. […] For TTX-resistant INa, DRG neurons were recorded in a bath solution containing 250 nM TTX. DRG neurons were recorded at voltages ranging from −60 to +60 mV. […]

Slack KNa channel = test: Surface biotinylation of Slack channel in cultured DRG neurons; assay type: cell-based, rat; conditions: 24 hrs after PDZ peptide incubation, vs scrambled peptide B
Procedure: (§2) Western Blot Analysis—Total proteins were collected from transfected CHO cells, spinal cord and DRG. Tissue was homogenized in RIPA buffer supplemented in protease inhibitor cocktail (Sigma). Immunoblotting was performed as previously described. Briefly, proteins were separated on 4-15% Mini-PROTEAN TGX Precast Gel (Bio-Rad) and transferred to a 0.45 μm nitrocellulose membrane (BioRad). Membranes were probed overnight at 4° C. with antibodies against Slack anti-mouse (1:500; NeuroMab), rabbit anti-β-Actin (1:500; Millipore), rabbit anti-Magi-1 (1:100; Abcam), mouse anti-Magi-1 (1:100; Novus Biochemical), mouse anti-NaV1.8 (1:200; NeuroMab), mouse anti-NaV1.7 (1:200; NeuroMab), mouse anti-Flag (1:500; Sigma) in 5% milk prepared in 1×Tris-buffered saline tween (TBST). On the following day, the membrane was washed three times for five minutes in 1×TBST before being incubated for 1 hour at room temperature in Anti-mouse or Anti-rabbit horseradish peroxidase conjugate (1:5000; Promega) and 0.1% BSA prepared in 1×PBS. The membrane was again washed 3 times for 5 minutes before being developed and imaged. Bands were visualized with enhanced chemiluminescence (Thermo Scientific) and quantified with Image J Software (NIH). Each experiment was repeated at least three times.
(§3) Surface Protein Biotinylation—Plasma membrane protein expression was detected using a protein biotinylation assay. […]

INa in DRG neurons = test: Whole-cell voltage-clamp recording of inward sodium current (INa); assay type: cell-based, rat; conditions: for INa (total / peak): 10 μM peptide, 24 hrs
Procedure: as §1, with “All subsequent experiments using embryonic cultures were performed on days 5-10 of neuronal culture.” left out
Electrophysiology—All data was acquired using the Axopatch 200B amplifier (Molecular Devices,) and Multiclamp-700B (Molecular Devices, Sunnyvale, Calif.), digitized and filtered at 5 kHz. Data acquisition was monitored and controlled using pClamp 10 (Molecular Devices). […] In voltage-clamp mode, macroscopic currents were recorded at voltages ranging from −120 to +120. […] The cell capacitance for CHO cells ranged from 10-15 pF and for cultured DRG neurons 20-25 pF recorded under these conditions. […] Firing frequency of individual neurons was assessed by measurement of repetitive discharge upon injecting of a supra-threshold stimulus of 400 pA for 1000 ms. […] For TTX-resistant INa, DRG neurons were recorded in a bath solution containing 250 nM TTX. DRG neurons were recorded at voltages ranging from −60 to +60 mV. […]

[1] = Formalin test of acute inflammatory pain; assay type: in vivo, mice; conditions: single i.pl. injection 100 μM, 20 μl, 24 hrs before 5% formalin; vs scrambled peptide
From the text: In vivo transfection with jetPEI®/Magi-1 shRNA plasmid DNA polyplexes—The spinal nerve injection protocol was adopted from and optimized for spinal nerve injection in mice. Three days after baseline thermal behavior was established, mice were anesthetized using isoflurane (induction: 4% and maintenance: 2%), and placed in a prone position. A 3-cm posterior longitudinal skin incision was made at the lumbar segment of the spine. The ipsilateral paraspinal muscles were carefully separated, using a pair of sterile toothpicks, from their attachments at the L4˜S1 levels of the vertebral column. 1.5 μl of PEI/shRNA plasmid DNA polyplexes at an N/P ratio of 6 were injected directly in the spinal nerve of the right hind paw slowly using a syringe connected to a 26-gauge needle (Hamilton 80030, Hamilton, Reno, NV). Magi-1 shRNAs and control shRNA were purchased from Santa Cruz Biotechnology (Santa Cruz, CA, USA) and were identical to the siRNA sequences described above. After injection, the needle was held at the spinal nerve for 1 min to prevent leakage. […]
Formalin test—Mice were habituated in the behavior room for 15 minutes, then 30 minutes in the formalin chamber before formalin injection. […] The total time spent lifting, the total number of licks, and the number of flinches were recorded in 5 minute intervals for 60 minutes. […]

NaV1.8 = test: Surface biotinylation / Western blot of NaV1.8 in cultured DRG neurons; assay type: cell-based, rat; conditions: 10 μM peptide, 24 hrs
Procedure: as §2
Surface Protein Biotinylation—Plasma membrane protein expression was detected using a protein biotinylation assay. Briefly, CHO cells or DRG neurons in six-well plates were used at 48 h after transient transfection of plasmid constructs or Magi-1 targeting siRNA respectively. For peptide incubation, neurons were incubated for 24 hrs. 160 μl of 10 mM Sulfo-NHS-SS-Biotin (Thermo Scientific) was added to each well and incubated at room temperature for 45 mins. The biotinylation reaction was terminated using 10 mM glycine (Quenching solution). Cells were harvested, washed in TBS and lysed on ice for 30 minutes in a lysis buffer/protease inhibitor cocktail. Lysates were collected and incubated with 500 uL of NeutrAvidin Agarose for 60 mins at room temperature with rotation. Following incubation, the column underwent centrifugation to collect the unbiotinylated protein. To elute the biotinylated proteins, sodium dodecyl sulfate (SDS) and dithiothreitol (DDT) were added to column membrane and incubated with rotation for 1 hour at room temperature. Biotinylated and unbiotinylated samples were probed for Slack or NaV1.8 and Actin protein by Western blot, as described above.

NaV1.7 = test: Surface biotinylation of NaV1.7 in cultured DRG neurons; assay type: cell-based, rat; conditions: peptide treatment 24 hrs
Procedure: as §2, §3

Row | Substance | neurons exhibiting repetitive firing (DRG neurons; PDZ peptide treated, suprathreshold stimulation 400 pA, 1000 ms) | Slack surface expression (Slack KNa channel) | neurons firing one action potential followed by firing accommodation (DRG neurons; suprathreshold stimulation 400 pA, 1000 ms) | INa (total / peak) (INa in DRG neurons) | decrease in INa density (INa in DRG neurons; PY peptide incubation, 6 hours) [%] | Phase II acute inflammatory pain (formalin) [1] | NaV1.8 channels at the plasma membrane (surface expression) (NaV1.8) | total NaV1.8 protein (NaV1.8) | neurons with AP firing almost completely abolished (DRG neurons; 10 μM peptide, 24 hrs) | surface (biotinylated) NaV1.7 membrane expression (NaV1.7) | neurons with repetitive AP firing (DRG neurons; 10 μM peptide, 24 hrs, suprathreshold stimulation 400 pA, 1000 ms)
1 | NPETRDETQL [PDZ peptide] | 11/21 | decreased |  |  |  |  |  |  |  |  | 
2 | myristoyl-QPNTRLDETE (Myristoyl-QPNTRLDETE) [Scrambled peptide B, reference compound] |  |  | 23/23 |  |  |  |  |  |  |  | 
3 | myristoyl-SATSFPPSYDSVTRG (Myristoyl-SATSFPPSYDSVTRG) [PY peptide] |  |  |  | almost complete loss | 50 | significantly reduced | substantial decrease | substantial decrease | 10 of 11 | unaltered | 
4 | myristoyl-SATSFPPSYDSV[pT]RG (Myristoyl-SATSFPPSYDSV[pT]RG) [phospho-PY peptide] |  |  |  | strongly increased |  | increase | significant increase | a statistically significant increase in input levels of NaV1.8 protein over 24 hours was not observed |  | unaltered | 7 of 12
